ChEMBL document CHEMBL3885861, “Open TG-GATES”

Species: Rattus norvegicus
Test: Open TG-GATES - Regimen: Single
Assay type: toxicity, organism-based, Sprague-Dawley
Set-up: regimen Single, gender Male, age 6 weeks
Conditions: in vivo, po, route gavage; for TP / gamma-GTP / ALP / ALT / AST / BUN / CRE / Ca / Cl / DBIL / GLC / IP / K / LDH / Na / PL / RALB / TBIL / TC / TG: tissue Plasma; for APTT / Bas / Eos / Fbg / Hb / Ht / Lym / MCH / MCHC / MCV / Mono / Neu / PT / Plat / RBC / Ret / WBC: tissue Blood; for KIDNEY_L / KIDNEY_R / KIDNEY_TOTAL: tissue Kidney; for LIVER: tissue Liver
[1] = 300 mg/kg, 24 h, dose level Low
[2] = 1000 mg/kg, 3 h, dose level Middle
[3] = 1000 mg/kg, 6 h, dose level Middle
[4] = 1000 mg/kg, 9 h, dose level Middle
[5] = 1000 mg/kg, 24 h, dose level Middle

How did the TP [1] turn out when `CCOc1ccc(NC(C)=O)cc1` [PHENACETIN] was run?
Its TP is 5.7 g/dL.

What about the gamma-GTP [1] of the same compound?
Its gamma-GTP is 1.2 IU/L.

What about the TERMINAL_BW [2] of the same compound?
Its TERMINAL_BW is 211.4 g.

And the APTT [2]?
Its APTT is 16.8 s.

And the Bas [2]?
Its Bas is 0%.

What about the Eos [2] of the same compound?
Its Eos is 1%.

What about the Fbg [2] of the same compound?
The Fbg was 302.8 mg/dL.

What about the Hb [2] of the same compound?
Its Hb is 13.4 g/dL.

What about the Ht [2] of the same compound?
Its Ht is 39.6%.

And the Lym [2]?
The Lym was 75.6%.

What about the MCH [2] of the same compound?
The MCH was 20.9 pg.

What about the MCHC [2] of the same compound?
The MCHC was 33.9%.

What about the MCV [2] of the same compound?
The MCV was 61.6 fL.

What about the Mono [2] of the same compound?
The Mono was 2.8%.

What about the Neu [2] of the same compound?
The Neu was 20.4%.

What about the PT [2] of the same compound?
The PT was 13.9 s.

And the Plat [2]?
Its Plat is 119.7 x10_4/uL.

What about the RBC [2] of the same compound?
The RBC was 643.4 x10_4/ul.

And the Ret [2]?
Its Ret is 8.8%.

What about the WBC [2] of the same compound?
The WBC was 62.5 x10_2/uL.

What about the KIDNEY_L [2] of the same compound?
Its KIDNEY_L is 0.9 g.

What about the KIDNEY_R [2] of the same compound?
The KIDNEY_R was 0.9 g.

What about the KIDNEY_TOTAL [2] of the same compound?
The KIDNEY_TOTAL was 1.8 g.

And the LIVER [2]?
The LIVER was 9.2 g.

What about the ALP [2] of the same compound?
Its ALP is 1732.2 IU/L.

And the ALT [2]?
The ALT was 35 IU/L.

What about the AST [2] of the same compound?
The AST was 69 IU/L.

And the BUN [2]?
Its BUN is 9.4 mg/dL.

And the CRE [2]?
Its CRE is 0.1 mg/dL.

What about the Ca [2] of the same compound?
The Ca was 11 mg/dL.

And the Cl [2]?
Its Cl is 100.4 meq/L.

What about the DBIL [2] of the same compound?
Its DBIL is 0 mg/dL.

And the GLC [2]?
Its GLC is 232 mg/dL.

And the IP [2]?
Its IP is 10.8 mg/dL.

What about the K [2] of the same compound?
The K was 3.6 meq/L.

What about the LDH [2] of the same compound?
The LDH was 64.8 IU/L.

And the Na [2]?
The Na was 139.8 meq/L.

And the PL [2]?
The PL was 150.8 mg/dL.

And the RALB [2]?
The RALB was 2.6 g/dL.

And the TBIL [2]?
Its TBIL is 0.032 mg/dL.

And the TC [2]?
Its TC is 87 mg/dL.

What about the TG [2] of the same compound?
The TG was 50.6 mg/dL.

And the TP [2]?
The TP was 5.5 g/dL.

What about the gamma-GTP [2] of the same compound?
Its gamma-GTP is 1.4 IU/L.

And the TERMINAL_BW [3]?
The TERMINAL_BW was 206.1 g.

And the APTT [3]?
Its APTT is 18 s.

And the Bas [3]?
Its Bas is 0%.

What about the Eos [3] of the same compound?
The Eos was 0.2%.

And the Fbg [3]?
The Fbg was 311.4 mg/dL.

What about the Hb [3] of the same compound?
Its Hb is 13.9 g/dL.

And the Ht [3]?
The Ht was 40.7%.

What about the Lym [3] of the same compound?
Its Lym is 73.2%.

And the MCH [3]?
Its MCH is 21.1 pg.

What about the MCHC [3] of the same compound?
Its MCHC is 34.2%.

And the MCV [3]?
Its MCV is 61.6 fL.

What about the Mono [3] of the same compound?
The Mono was 2%.

And the Neu [3]?
The Neu was 24.2%.

And the PT [3]?
The PT was 14.2 s.

And the Plat [3]?
The Plat was 124.9 x10_4/uL.

What about the RBC [3] of the same compound?
The RBC was 661 x10_4/ul.

What about the Ret [3] of the same compound?
Its Ret is 9%.

What about the WBC [3] of the same compound?
The WBC was 54.6 x10_2/uL.

What about the KIDNEY_L [3] of the same compound?
The KIDNEY_L was 0.9 g.

What about the KIDNEY_R [3] of the same compound?
The KIDNEY_R was 0.9 g.

And the KIDNEY_TOTAL [3]?
The KIDNEY_TOTAL was 1.9 g.

What about the LIVER [3] of the same compound?
The LIVER was 8.8 g.

And the ALP [3]?
Its ALP is 1388 IU/L.

And the ALT [3]?
The ALT was 40.4 IU/L.

What about the AST [3] of the same compound?
The AST was 76 IU/L.

And the BUN [3]?
The BUN was 11.2 mg/dL.

And the CRE [3]?
The CRE was 0.1 mg/dL.

And the Ca [3]?
Its Ca is 10.9 mg/dL.

And the Cl [3]?
Its Cl is 102.6 meq/L.

What about the DBIL [3] of the same compound?
The DBIL was 0 mg/dL.

And the GLC [3]?
Its GLC is 188.4 mg/dL.

And the IP [3]?
Its IP is 9.8 mg/dL.

What about the K [3] of the same compound?
Its K is 4 meq/L.

And the LDH [3]?
Its LDH is 73.6 IU/L.

What about the Na [3] of the same compound?
Its Na is 139.2 meq/L.

What about the PL [3] of the same compound?
Its PL is 151.8 mg/dL.

What about the RALB [3] of the same compound?
Its RALB is 2.6 g/dL.

What about the TBIL [3] of the same compound?
The TBIL was 0.04 mg/dL.

What about the TC [3] of the same compound?
Its TC is 94.2 mg/dL.

And the TG [3]?
Its TG is 23.4 mg/dL.

What about the TP [3] of the same compound?
The TP was 5.6 g/dL.

What about the gamma-GTP [3] of the same compound?
Its gamma-GTP is 1.2 IU/L.

What about the TERMINAL_BW [4] of the same compound?
The TERMINAL_BW was 205.3 g.

And the APTT [4]?
The APTT was 17.2 s.

What about the Bas [4] of the same compound?
Its Bas is 0%.

What about the Eos [4] of the same compound?
Its Eos is 1%.

And the Fbg [4]?
Its Fbg is 302.6 mg/dL.

And the Hb [4]?
The Hb was 14 g/dL.

What about the Ht [4] of the same compound?
Its Ht is 40.8%.

What about the Lym [4] of the same compound?
The Lym was 76.2%.

What about the MCH [4] of the same compound?
Its MCH is 21.1 pg.

What about the MCHC [4] of the same compound?
Its MCHC is 34.3%.

And the MCV [4]?
The MCV was 61.4 fL.

What about the Mono [4] of the same compound?
Its Mono is 3.4%.

And the Neu [4]?
Its Neu is 18.6%.

And the PT [4]?
Its PT is 14.1 s.

And the Plat [4]?
The Plat was 120 x10_4/uL.

What about the RBC [4] of the same compound?
Its RBC is 664.6 x10_4/ul.

And the Ret [4]?
The Ret was 8.5%.

What about the WBC [4] of the same compound?
Its WBC is 49.5 x10_2/uL.

What about the KIDNEY_L [4] of the same compound?
The KIDNEY_L was 0.9 g.

And the KIDNEY_R [4]?
The KIDNEY_R was 0.9 g.

What about the KIDNEY_TOTAL [4] of the same compound?
The KIDNEY_TOTAL was 1.9 g.

And the LIVER [4]?
The LIVER was 8.8 g.

What about the ALP [4] of the same compound?
The ALP was 1337.2 IU/L.

And the ALT [4]?
The ALT was 38.6 IU/L.

And the AST [4]?
The AST was 70.2 IU/L.

And the CRE [4]?
The CRE was 0.1 mg/dL.

And the Ca [4]?
Its Ca is 10.9 mg/dL.

What about the Cl [4] of the same compound?
Its Cl is 101.6 meq/L.

What about the DBIL [4] of the same compound?
The DBIL was 0.006 mg/dL.

And the GLC [4]?
The GLC was 205.2 mg/dL.

What about the IP [4] of the same compound?
The IP was 9 mg/dL.

What about the K [4] of the same compound?
Its K is 3.9 meq/L.

And the LDH [4]?
Its LDH is 82 IU/L.

And the PL [4]?
Its PL is 160.6 mg/dL.

What about the RALB [4] of the same compound?
Its RALB is 2.6 g/dL.

What about the TBIL [4] of the same compound?
Its TBIL is 0.046 mg/dL.

And the TC [4]?
Its TC is 95.2 mg/dL.

And the TG [4]?
Its TG is 32.6 mg/dL.

And the TP [4]?
Its TP is 5.6 g/dL.

What about the gamma-GTP [4] of the same compound?
Its gamma-GTP is 1.2 IU/L.

What about the TERMINAL_BW [5] of the same compound?
Its TERMINAL_BW is 204.2 g.

And the APTT [5]?
The APTT was 17 s.

What about the Bas [5] of the same compound?
The Bas was 0%.

And the Eos [5]?
Its Eos is 1%.

And the Fbg [5]?
Its Fbg is 291.6 mg/dL.

And the Hb [5]?
Its Hb is 13.4 g/dL.

And the Ht [5]?
Its Ht is 40.1%.

What about the Lym [5] of the same compound?
Its Lym is 69%.

And the MCH [5]?
Its MCH is 20.5 pg.

What about the MCHC [5] of the same compound?
Its MCHC is 33.5%.

And the MCV [5]?
The MCV was 61.2 fL.

What about the Mono [5] of the same compound?
The Mono was 3.2%.

What about the Neu [5] of the same compound?
Its Neu is 26.2%.

What about the Plat [5] of the same compound?
The Plat was 127.8 x10_4/uL.

What about the RBC [5] of the same compound?
Its RBC is 654.4 x10_4/ul.

What about the Ret [5] of the same compound?
Its Ret is 7.5%.

What about the WBC [5] of the same compound?
The WBC was 82.6 x10_2/uL.

What about the KIDNEY_L [5] of the same compound?
Its KIDNEY_L is 1 g.

And the KIDNEY_R [5]?
Its KIDNEY_R is 1 g.

And the KIDNEY_TOTAL [5]?
Its KIDNEY_TOTAL is 1.9 g.

What about the LIVER [5] of the same compound?
The LIVER was 8.7 g.

And the ALP [5]?
Its ALP is 1673.4 IU/L.

And the ALT [5]?
The ALT was 53.6 IU/L.

What about the AST [5] of the same compound?
The AST was 118.8 IU/L.

And the BUN [5]?
Its BUN is 13.6 mg/dL.

What about the CRE [5] of the same compound?
The CRE was 0.2 mg/dL.

And the Ca [5]?
The Ca was 10.9 mg/dL.

What about the Cl [5] of the same compound?
The Cl was 105 meq/L.

What about the DBIL [5] of the same compound?
The DBIL was 0.038 mg/dL.

What about the GLC [5] of the same compound?
The GLC was 167 mg/dL.

What about the IP [5] of the same compound?
The IP was 9.2 mg/dL.

What about the K [5] of the same compound?
The K was 4.6 meq/L.

And the LDH [5]?
Its LDH is 202.2 IU/L.

And the Na [5]?
The Na was 141.6 meq/L.

And the PL [5]?
The PL was 166.6 mg/dL.

And the RALB [5]?
Its RALB is 2.6 g/dL.

What about the TBIL [5] of the same compound?
Its TBIL is 0.052 mg/dL.
